Series [1] deals with T1, Solute carrier organic anion transporter family member 1B1 (Homo sapiens, UniProt Q9Y6L6).
T1 sequence (Q9Y6L6 whole entry): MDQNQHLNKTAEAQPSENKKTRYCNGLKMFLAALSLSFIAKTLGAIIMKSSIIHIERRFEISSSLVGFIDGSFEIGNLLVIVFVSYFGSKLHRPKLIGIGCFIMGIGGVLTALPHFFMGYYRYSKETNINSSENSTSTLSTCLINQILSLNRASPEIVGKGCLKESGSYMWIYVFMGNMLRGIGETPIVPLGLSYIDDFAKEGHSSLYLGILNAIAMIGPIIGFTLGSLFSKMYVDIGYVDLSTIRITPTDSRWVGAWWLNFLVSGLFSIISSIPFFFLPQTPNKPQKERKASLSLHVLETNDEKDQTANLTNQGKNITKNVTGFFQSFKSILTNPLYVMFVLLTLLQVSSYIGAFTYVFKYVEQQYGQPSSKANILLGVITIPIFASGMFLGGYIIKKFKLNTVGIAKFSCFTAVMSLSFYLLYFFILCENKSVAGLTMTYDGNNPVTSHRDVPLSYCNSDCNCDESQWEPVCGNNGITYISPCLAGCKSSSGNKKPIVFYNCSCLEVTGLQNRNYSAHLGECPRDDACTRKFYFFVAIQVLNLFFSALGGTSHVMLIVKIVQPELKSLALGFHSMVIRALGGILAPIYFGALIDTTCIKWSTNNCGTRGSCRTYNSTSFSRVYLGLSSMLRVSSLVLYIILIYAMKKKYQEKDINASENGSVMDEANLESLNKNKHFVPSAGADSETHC
The following applies: chinese hamster, cho, 10 µM.

Series [2] concerns the target T2, Solute carrier organic anion transporter family member 1B3 (Homo sapiens, UniProt Q9NPD5).
T2 sequence (Q9NPD5 whole entry): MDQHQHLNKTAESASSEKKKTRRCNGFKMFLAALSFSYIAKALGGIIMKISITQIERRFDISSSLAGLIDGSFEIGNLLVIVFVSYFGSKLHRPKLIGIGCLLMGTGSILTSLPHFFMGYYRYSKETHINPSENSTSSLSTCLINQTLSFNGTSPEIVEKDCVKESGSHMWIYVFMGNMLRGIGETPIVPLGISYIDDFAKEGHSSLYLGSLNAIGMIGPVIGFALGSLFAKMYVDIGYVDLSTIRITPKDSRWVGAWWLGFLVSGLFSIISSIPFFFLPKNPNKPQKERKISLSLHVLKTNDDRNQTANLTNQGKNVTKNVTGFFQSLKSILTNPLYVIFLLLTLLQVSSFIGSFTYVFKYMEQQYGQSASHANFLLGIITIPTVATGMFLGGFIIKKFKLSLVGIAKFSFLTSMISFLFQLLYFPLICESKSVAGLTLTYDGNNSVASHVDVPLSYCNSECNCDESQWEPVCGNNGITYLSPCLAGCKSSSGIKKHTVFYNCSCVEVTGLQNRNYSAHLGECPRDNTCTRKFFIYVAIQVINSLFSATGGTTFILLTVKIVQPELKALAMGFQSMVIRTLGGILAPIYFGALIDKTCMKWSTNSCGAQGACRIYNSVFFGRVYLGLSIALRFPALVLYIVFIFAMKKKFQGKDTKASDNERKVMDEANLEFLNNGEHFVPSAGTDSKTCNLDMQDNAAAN
The note with it: chinese hamster, cho, 10 µM.

As a reminder, the residual activity is the signal under treatment as a percentage of the control signal. As for `CCCCCCCCCCC[C@@H](C[C@@H]1OC(=O)[C@H]1CCCCCC)OC(=O)[C@H](CC(C)C)NC=O` [ORLISTAT], the figures for the residual activity in series [1] and in series [2] were 85.27% and 84.62%, respectively.

With `Cc1ccccc1C(OCCN(C)C)c1ccccc1.O=C(O)CC(O)(CC(=O)O)C(=O)O` (centres undefined) [ORPHENADRINE CITRATE], the values for the residual activity in series [1] and in series [2] were 87.55% and 96.44%, respectively.

`CCOC(=O)c1c(C)cc(O)cc1O` [ORSELLINIC ACID, ETHYL ESTER]: the residual activity in series [1] came to 116.8%; in series [2] it was 105.8%.

For `Cc1cc(O)cc(O)c1C(=O)O` [ORSELLINIC ACID], the results for the residual activity in series [1] and in series [2] were 66.07% and 86.96%, respectively.

Consider `Cc1ccc(C(C)C)c(O)c1C(=O)O` [ORTHOTHYMOTINIC ACID], for which the residual activity in series [1] was 75.5%; in series [2] it was 82.08%.

Regarding `CC(C)=CCc1c2c(c3occ(-c4ccc(O)cc4)c(=O)c3c1O)C=CC(C)(C)O2` [OSAJIN], the results for the residual activity in series [1] and in series [2] were 112.9% and 88.68%, respectively.

As for `COc1ccc2ccc(=O)oc2c1CC=C(C)C` [OSTHOLE], the results for the residual activity in series [1] and in series [2] were 227.1% and 121.3%, respectively.

On to `C[C@@H]1O[C@@H](O[C@H]2C[C@@H](O)[C@]3(CO)[C@H]4[C@H](O)C[C@]5(C)[C@@H](C6=CC(=O)OC6)CC[C@]5(O)[C@@H]4CC[C@]3(O)C2)[C@H](O)[C@H](O)[C@H]1O` [OUABAIN], for which the residual activity in series [1] was 108.1%; in series [2], 98.13%.

Consider `NC(=O)N1c2ccccc2CC(=O)c2ccccc21` [OXCARBAZEPINE], for which the residual activity in series [1] was 71.5%; in series [2], 85.1%.

As to `CC[S+]([O-])CCSP(=O)(OC)OC` (centres undefined) [OXDEMETONMETHYL], the residual activity in series [1] turned out to be 116.8%; in series [2], 94.08%.

Take `COC(=O)Nc1nc2ccc([S+]([O-])c3ccccc3)cc2[nH]1` (centres undefined) [OXFENDAZOLE]: the residual activity in series [1] is on record as 95.15%; in series [2] it was 114.2%.

In the case of `CCCOc1ccc2nc(NC(=O)OC)[nH]c2c1` [OXIBENDAZOLE], the residual activity in series [1] was found to be 102.5%; in series [2], 119.5%.

Consider `Clc1ccc(CO/N=C(\Cn2ccnc2)c2ccc(Cl)cc2Cl)c(Cl)c1.O=[N+]([O-])O` [OXICONAZOLE NITRATE], for which the figures for the residual activity in series [1] and in series [2] were 116% and 122.3%, respectively.

Take `Cl.NCCc1cc(O)c(O)cc1O` [OXIDOPAMINE HYDROCHLORIDE]: the residual activity is 80.99% in series [1] and 100.5% in series [2].

As to `CCn1cc(C(=O)O)c(=O)c2cc3c(cc21)OCO3` [OXOLINIC ACID], the values for the residual activity in series [1] and in series [2] were 55.65% and 87.39%, respectively.

Turning to `O=C1CCCN1CC#CCN1CCCC1` [OXOTREMORINE], the results for the residual activity in series [1] and in series [2] were 95.24% and 82.72%, respectively.

Consider `COc1ccc(C(=O)c2ccccc2)c(O)c1` [OXYBENZONE], for which the residual activity was 225.4% in series [1] and 128.4% in series [2].

Consider `Cc1cc(C(C)(C)C)c(O)c(C)c1CC1=NCCN1.Cl` [OXYMETAZOLINE HYDROCHLORIDE], for which the residual activity in series [1] is on record as 95.6%; in series [2] it was 104.7%.

As to `CCCCC1C(=O)N(c2ccccc2)N(c2ccc(O)cc2)C1=O` (centres undefined) [OXYPHENBUTAZONE ANHYDROUS], the figures for the residual activity in series [1] and in series [2] were 42.04% and 83.15%, respectively.

Regarding `CN1CCCN=C1COC(=O)C(O)(c1ccccc1)C1CCCCC1.Cl` (centres undefined) [OXYPHENCYCLIMINE HYDROCHLORIDE], the residual activity in series [1] worked out at 92.1%; in series [2] it was 103.9%.

Consider `CN(C)[C@@H]1C(O)=C(C(N)=O)C(=O)[C@@]2(O)C(O)=C3C(=O)c4c(O)cccc4[C@@](C)(O)[C@H]3[C@H](O)[C@@H]12` [OXYTETRACYCLINE], for which the residual activity in series [1] turned out to be 61.86%; in series [2], 95.2%.

As to `COc1cc2c(cc1-c1cc3cc4ccoc4cc3oc1=O)OCO2` [PACHYRRIZINE], the results for the residual activity in series [1] and in series [2] were 139.6% and 121.4%, respectively.

Turning to `C[C@@]12C[C@@]3(O)O[C@@H](O1)[C@]1(COC(=O)c4ccccc4)[C@H]3C[C@@]12O[C@@H]1O[C@H](CO)[C@@H](O)[C@H](O)[C@H]1O` [PAEONIFLORIN], the residual activity turned out to be 109.5% in series [1] and 101.8% in series [2].

`COc1ccc(C(C)=O)c(O)c1` [PAEONOL]: the residual activity in series [1] was 121.7%; in series [2], 108.3%.

Turning to `COc1cc2c(cc1OC)-c1cc3ccc(OC)c(OC)c3c[n+]1CC2.[Cl-]` [PALMATINE CHLORIDE], the values for the residual activity in series [1] and in series [2] were 110.1% and 97.62%, respectively.

As for `COc1cc2c(cc1OC)-c1cc3ccc(OC)c(OC)c3c[n+]1CC2` [PALMITINE], the results for the residual activity in series [1] and in series [2] were 78.6% and 102.6%, respectively.

Consider `COc1ccnc(C[S+]([O-])c2nc3ccc(OC(F)F)cc3[nH]2)c1OC` (centres undefined) [PANTOPRAZOLE], for which the residual activity is 81.37% in series [1] and 79.12% in series [2].

With `COc1ccc(Cc2nccc3cc(OC)c(OC)cc23)cc1OC.Cl` [PAPAVERINE HYDROCHLORIDE], the residual activity in series [1] was 266.9%; in series [2], 113.7%.

Turning to `Oc1ccc(Cl)cc1` [PARACHLOROPHENOL], the figures for the residual activity in series [1] and in series [2] were 89.66% and 100.4%, respectively.

In the case of `N=C1C=CC(=C(c2ccc(N)cc2)c2ccc(N)cc2)C=C1.N=C1C=CC(=C(c2ccc(N)cc2)c2ccc(N)cc2)C=C1.O.O.O=C(O)c1cc2ccccc2c(Cc2c(O)c(C(=O)O)cc3ccccc23)c1O` [PARAROSANILINE PAMOATE], the residual activity in series [1] amounted to 66.86%; in series [2], 144.5%.

Consider `Cn1c(=O)[nH]c2ncn(C)c2c1=O` [PARAXANTHINE], for which the figures for the residual activity in series [1] and in series [2] were 94.78% and 88.58%, respectively.

As for `C#CCN(C)Cc1ccccc1.Cl` [PARGYLINE HYDROCHLORIDE], the figures for the residual activity in series [1] and in series [2] were 99.32% and 133.9%, respectively.

For `Cl.Cl.Fc1ccc([C@@H]2CCNC[C@H]2COc2ccc3c(c2)OCO3)cc1.Fc1ccc([C@@H]2CCNC[C@H]2COc2ccc3c(c2)OCO3)cc1.O` [PAROXETINE HYDROCHLORIDE], the residual activity in series [1] amounted to 96.74%; in series [2], 76.07%.

Consider `O=C1C=C2C(=CCOC2O)O1` (centres undefined) [PATULIN], for which the values for the residual activity in series [1] and in series [2] were 81.5% and 79.09%, respectively.

Consider `COc1ccc(-c2cc(=O)c3c(O)c(OC)c(O[C@@H]4O[C@H](CO[C@@H]5O[C@@H](C)[C@H](O)[C@@H](O)[C@H]5O)[C@@H](O)[C@H](O)[C@H]4O)cc3o2)cc1` [PECTOLINARIN], for which the residual activity in series [1] was 39.1%; in series [2] it was 155.8%.

As for `CCn1cc(C(=O)O)c(=O)c2cc(F)c(N3CCN(C)CC3)cc21.CS(=O)(=O)O` [PEFLOXACIN MESYLATE], the residual activity in series [1] was determined as 123.1%; in series [2], 95.74%.

Take `CC(=O)CC1CCCCN1.Cl` (centres undefined) [PELLETIERINE HYDROCHLORIDE]: the figures for the residual activity in series [1] and in series [2] were 75.96% and 95.02%, respectively.

Values taken from ChEMBL document CHEMBL3039007, “Structure-based identification of OATP1B1/3 inhibitors” (Mol Pharmacol, 2013).
